Experimental data: patent US20250230171A1 (MOMA Therapeutics, Inc., priority 2023, published 2025)
pIC50: −log10 of the molar value. Like-named read-outs stand apart in the source and are kept apart here.

Legend:
DLD1 BRCA2 (−/−) cells = experiment: 7-day cell viability assay (CellTiter-Glo), DLD1 BRCA2 (−/−); type: cell-based, human; conditions: n=2, read-out: Viability IC50 (uM) DLD1 BRCA2 null
Summary of the method: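 7-day growth assay in DLD1 cells with or without BRCA2; seeding densities chosen to keep log-linear growth. Compound: 10 uM top, 3-fold, 9 points. Endpoint: CTG ATP luminescence at RT.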

[1] = molecular target: biotinylated Avi-POLθ[2-894] (Homo sapiens (Human), UniProt O75417); experiment: POLθ ATPase assay (ADP-Glo); conditions: n=2, read-out: Biochemical ATPase ADPGlo IC50
Chain of biotinylated Avi-POLθ[2-894] (O75417 2-894): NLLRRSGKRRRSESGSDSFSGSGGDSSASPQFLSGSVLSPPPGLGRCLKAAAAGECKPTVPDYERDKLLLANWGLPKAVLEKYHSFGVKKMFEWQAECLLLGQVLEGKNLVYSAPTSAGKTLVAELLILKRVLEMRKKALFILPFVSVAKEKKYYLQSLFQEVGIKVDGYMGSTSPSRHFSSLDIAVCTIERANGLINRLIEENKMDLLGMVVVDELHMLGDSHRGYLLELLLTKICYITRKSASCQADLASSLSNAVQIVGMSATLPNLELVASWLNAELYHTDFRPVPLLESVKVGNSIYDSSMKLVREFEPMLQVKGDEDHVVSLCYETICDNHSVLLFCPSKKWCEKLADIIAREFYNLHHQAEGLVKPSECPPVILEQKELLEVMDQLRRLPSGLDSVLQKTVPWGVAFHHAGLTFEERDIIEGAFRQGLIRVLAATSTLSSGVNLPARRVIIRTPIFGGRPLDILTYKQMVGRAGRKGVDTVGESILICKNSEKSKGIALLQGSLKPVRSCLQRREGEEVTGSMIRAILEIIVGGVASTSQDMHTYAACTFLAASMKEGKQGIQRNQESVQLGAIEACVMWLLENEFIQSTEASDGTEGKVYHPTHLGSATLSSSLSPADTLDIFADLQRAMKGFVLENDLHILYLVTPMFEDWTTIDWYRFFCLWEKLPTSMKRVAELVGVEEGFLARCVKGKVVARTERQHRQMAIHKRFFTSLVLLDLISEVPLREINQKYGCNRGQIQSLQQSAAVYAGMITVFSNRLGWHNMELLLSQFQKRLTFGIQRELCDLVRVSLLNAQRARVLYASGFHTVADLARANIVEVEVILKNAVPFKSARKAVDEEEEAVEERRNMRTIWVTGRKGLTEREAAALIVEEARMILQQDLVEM

DLD1 WT cells = experiment: 7-day cell viability assay (CellTiter-Glo), DLD1 parental (WT); type: cell-based, human; conditions: n=2
[2] = Homo sapiens, DLD-1, 168 h, 7-day viability
[3] = Homo sapiens, DLD-1, 168 h, 7-day CellTiter-Glo

IC50 (DLD1 BRCA2 (−/−) cells; [2]) [µM]	pIC50 [1]	IC50 (DLD1 BRCA2 (−/−) cells; [3]) [µM]	pIC50 ([1]; POLθ ATPase, ADP-Glo)	Compound	IC50 (DLD1 WT cells; [2]) [µM]	IC50 (DLD1 WT cells; [3]) [µM]	IC50 (DLD1 BRCA2 (−/−) cells; 7-day CellTiter-Glo) [µM]	IC50 (DLD1 WT cells; 7-day CellTiter-Glo) [µM]
0.001 to 0.1	7.82 to 9.00	–	–	COc1cnc(Cl)cc1-c1cc(C)ncc1C(=O)Nc1nc2c(s1)CN(C(=O)c1cnn(C(F)F)c1)C2 (racemic)	0.001 to 0.5	–	–	–
0.001 to 0.1	7.82 to 9.00	–	–	COc1cnc(Cl)cc1-c1cc(C)ncc1C(=O)Nc1nc2c(s1)CN(C(=O)c1c(C(F)F)nn(C)c1Cl)C2 [Example 89, 2′-chloro-N-(5-(5-chloro-3-(difluoromethyl)-1-methyl-1H-pyrazole-4-carbonyl)-5,6-dihydro-4H-pyrrolo[3,4-d]thiazol-2-yl)-5′-methoxy-6-methyl-[4,4′-bipyridine]-3-carboxamide]	≥ 10	–	–	–
–	–	0.001 to 0.1	7.82 to 9.00	COc1cnc(Cl)cc1-c1cc(C)ncc1C(=O)Nc1nc2c(s1)CN(C(=O)c1ccc(Cl)c(OC)n1)C2 [Example 421]	–	2 to 5	–	–
0.001 to 0.1	7.82 to 9.00	–	–	COc1cnc(Cl)cc1-c1cc(C)ncc1C(=O)Nc1nc2c(s1)CN(C(=O)c1cnn3c1CCC3)C2 [Example 4, 2′-chloro-N-(5-(5,6-dihydro-4H-pyrrolo[1,2-b]pyrazole-3-carbonyl)-5,6-dihydro-4H-pyrrolo[3,4-d]thiazol-2-yl)-5′-methoxy-6-methyl-[4,4′-bipyridine]-3-carboxamide]	0.001 to 0.5	–	–	–
0.1 to 0.25	7.82 to 9.00	–	–	COc1cnc(Cl)cc1-c1cc(C)ncc1C(=O)Nc1nc2c(s1)CN(C(=O)C1CC3(CC(O)C3)C1)C2 (stereo not drawn) [Example 148]	≥ 10	–	–	–
0.001 to 0.1	7.82 to 9.00	–	–	COc1cnc(Cl)cc1-c1cc(C)ncc1C(=O)Nc1nc2c(s1)CN(C(=O)c1cc(C(F)(F)F)nn1C)C2 [Example 44, 2′-chloro-5′-methoxy-6-methyl-N-(5-(1-methyl-3-(trifluoromethyl)-1H-pyrazole-5-carbonyl)-5,6-dihydro-4H-pyrrolo[3,4-d]thiazol-2-yl)-[4,4′-bipyridine]-3-carboxamide]	≥ 10	–	–	–
–	–	0.001 to 0.1	7.82 to 9.00	COc1cnc(Cl)cc1-c1cc(C)ncc1C(=O)Nc1nc2c(s1)CN(C(=O)c1ccc(C(F)F)cc1Cl)C2	–	≥ 10	–	–
≥ 2	7.82 to 9.00	–	–	COc1ccc(C#N)cc1-c1cc(C)ncc1C(=O)Nc1nc2c(s1)CN(C(=O)c1ccnc(C)c1)C2	≥ 10	–	–	–
≥ 2	7.82 to 9.00	–	–	COc1ccc(C#N)cc1-c1cc(C)ncc1C(=O)Nc1nc2c(s1)CN(S(=O)(=O)N1CCOCC1)C2	≥ 10	–	–	–
–	–	0.1 to 0.25	7.82 to 9.00	COc1cnc(Cl)cc1-c1cc(C)ncc1C(=O)Nc1nc2c(s1)CN(C(=O)c1ncc(Br)cc1OC)C2	–	≥ 10	–	–
0.001 to 0.1	7.82 to 9.00	–	–	COc1cnc(Cl)cc1-c1cc(C)ncc1C(=O)Nc1nc2c(s1)CN(C(=O)c1ncc(C(F)(F)F)cc1Cl)C2 [Example 16, 2′-chloro-N-(5-(3-chloro-5-(trifluoromethyl)picolinoyl)-5,6-dihydro-4H-pyrrolo[3,4-d]thiazol-2-yl)-5′-methoxy-6-methyl-[4,4′-bipyridine]-3-carboxamide]	≥ 10	–	–	–
0.001 to 0.1	7.82 to 9.00	–	–	COc1cnc(Cl)cc1-c1cc(C)ncc1C(=O)Nc1nc2c(s1)CN(C(=O)c1ncc(C)o1)C2 [Example 45, 2′-chloro-5′-methoxy-6-methyl-N-(5-(5-methyloxazole-2-carbonyl)-5,6-dihydro-4H-pyrrolo[3,4-d]thiazol-2-yl)-[4,4′-bipyridine]-3-carboxamide]	2 to 5	–	–	–
≥ 2	7.82 to 9.00	–	–	COc1ccc(C#N)cc1-c1cc(C)ncc1C(=O)Nc1nc2c(s1)CN(S(=O)(=O)NC(C)(C)C)C2	≥ 10	–	–	–
0.001 to 0.1	7.82 to 9.00	–	–	COc1cnc(Cl)cc1-c1cc(C)ncc1C(=O)Nc1nc2c(s1)CN(C(=O)c1ccc(C(F)F)cn1)C2 [Example 9, 2′-chloro-N-(5-(5-(difluoromethyl)picolinoyl)-5,6-dihydro-4H-pyrrolo[3,4-d]thiazol-2-yl)-5′-methoxy-6-methyl-[4,4′-bipyridine]-3-carboxamide]	≥ 10	–	–	–
≥ 2	≤ 6.05	–	–	COc1ccccc1-c1cc(C)ncc1C(=O)Nc1nc2c(s1)CNCC2	≥ 10	–	–	–
0.001 to 0.1	7.82 to 9.00	–	–	COc1ccc(C#N)cc1-c1cc(C)ncc1C(=O)Nc1nc2c(s1)CN(C(=O)c1ccc(C(F)F)cn1)C2 [Example 122]	5 to 10	–	–	–
0.5 to 2	7.82 to 9.00	–	–	COc1ccc(C#N)cc1-c1cc(C)ncc1C(=O)Nc1nc2c(s1)CN(C(=O)C1CC(C(F)F)C1)C2 (stereo not drawn) [Example 244]	≥ 10	–	–	–

More lines, now with the values behind:

Compound	IC50 (DLD1 BRCA2 (−/−) cells; [2]) [µM]	pIC50 [1]	IC50 (DLD1 BRCA2 (−/−) cells; [3]) [µM]	pIC50 ([1]; POLθ ATPase, ADP-Glo)	IC50 (DLD1 WT cells; [2]) [µM]	IC50 (DLD1 WT cells; [3]) [µM]	IC50 (DLD1 BRCA2 (−/−) cells; 7-day CellTiter-Glo) [µM]	IC50 (DLD1 WT cells; 7-day CellTiter-Glo) [µM]
COc1cnc(Cl)cc1-c1cc(C)ncc1C(=O)Nc1nc2c(s1)CN(C(=O)c1ccnc(C)n1)C2	–	–	0.001 to 0.1	7.82 to 9.00	–	5 to 10	–	–
COc1cnc(Cl)cc1-c1cc(C)ncc1C(=O)Nc1nc2c(s1)CN(C(=O)c1cccn3nccc13)C2 [Example 424]	–	–	0.001 to 0.1	7.82 to 9.00	–	≥ 10	–	–
COc1ccccc1-c1cc(C)ncc1C(=O)Nc1nc2c(s1)CN(c1ccc(Cl)cc1)CC2	≥ 2	≤ 6.05	–	–	≥ 10	–	–	–
COc1cnc(Cl)cc1-c1cc(C)ncc1C(=O)Nc1nc2c(s1)CN(C(=O)C1CC3(C1)CC(F)(F)C3)C2 [Example 64, 2′-chloro-N-(5-(6,6-difluorospiro[3.3]heptane-2-carbonyl)-5,6-dihydro-4H-pyrrolo[3,4-d]thiazol-2-yl)-5′-methoxy-6-methyl-[4,4′-bipyridine]-3-carboxamide]	0.001 to 0.1	7.82 to 9.00	–	–	5 to 10	–	–	–
COc1ccccc1-c1cc(C)ncc1C(=O)Nc1nc2c(s1)CN(Cc1ccccc1)CC2	0.5 to 2	≤ 6.05	–	–	0.5 to 2	–	–	–
COc1cnc(Cl)cc1-c1cc(C)ncc1C(=O)Nc1nc2c(s1)CN(C(=O)c1ccc(F)c(C(F)F)n1)C2	–	–	0.001 to 0.1	7.82 to 9.00	–	≥ 10	–	–
COc1cnc(Cl)cc1-c1cc(C)ncc1C(=O)Nc1nc2c(s1)CN(C(=O)c1ccc(OC)c(Cl)n1)C2 [Example 395, 2′-chloro-N-(5-(6-chloro-5-methoxypicolinoyl)-5,6-dihydro-4H-pyrrolo[3,4-d]thiazol-2-yl)-5′-methoxy-6-methyl-[4,4′-bipyridine]-3-carboxamide]	–	–	0.001 to 0.1	7.82 to 9.00	–	≥ 10	–	–
COc1cnc(C(F)F)c(C(=O)N2Cc3nc(NC(=O)c4cnc(C)cc4-c4cc(Cl)ncc4OC)sc3C2)n1 [Example 503, 2′-Chloro-N-(5-(3-(difluoromethyl)-6-methoxypyrazine-2-carbonyl)-5,6-dihydro-4H-pyrrolo[3,4-d]thiazol-2-yl)-5′-methoxy-6-methyl-[4,4′-bipyridine]-3-carboxamdie]	–	–	–	7.82 to 9.00	–	–	0.001 to 0.1	≥ 10
COc1cnc(Cl)cc1-c1cc(C)ncc1C(=O)Nc1nc2c(s1)CN(C(=O)c1nccc(Cl)c1OC)C2 [Example 399, 2′-chloro-N-(5-(4-chloro-3-methoxypicolinoyl)-5,6-dihydro-4H-pyrrolo[3,4-d]thiazol-2-yl)-5′-methoxy-6-methyl-[4,4′-bipyridine]-3-carboxamide]	0.001 to 0.1	7.82 to 9.00	–	–	≥ 10	–	–	–
COc1cnc(Cl)cc1-c1cc(C)ncc1C(=O)Nc1nc2c(s1)CN(C(=O)c1cccc3ccnn13)C2	0.001 to 0.1	7.82 to 9.00	–	–	≥ 10	–	–	–
CCc1cc(C(=O)N2Cc3nc(NC(=O)c4cnc(C)cc4-c4cc(Cl)ncc4OC)sc3C2)n(C)n1 [Example 57, 2′-chloro-N-(5-(3-ethyl-1-methyl-1H-pyrazole-5-carbonyl)-5,6-dihydro-4H-pyrrolo[3,4-d]thiazol-2-yl)-5′-methoxy-6-methyl-[4,4′-bipyridine]-3-carboxamide]	0.001 to 0.1	7.82 to 9.00	–	–	≥ 10	–	–	–
COc1cnc(Cl)cc1-c1cc(C)ncc1C(=O)Nc1nc2c(s1)CN(C(=O)c1ccc(C(F)F)nc1)C2 [Example 12, 2′-chloro-N-(5-(6-(difluoromethyl)nicotinoyl)-5,6-dihydro-4H-pyrrolo[3,4-d]thiazol-2-yl)-5′-methoxy-6-methyl-[4,4′-bipyridine]-3-carboxamide]	0.001 to 0.1	7.82 to 9.00	–	–	≥ 10	–	–	–
COc1nnc(Cl)cc1-c1cc(C)ncc1C(=O)Nc1nc2c(s1)CN(C(=O)c1ccc(C(F)F)cn1)C2	–	–	0.001 to 0.1	7.82 to 9.00	–	≥ 10	–	–
COc1cc(C(=O)N2Cc3nc(NC(=O)c4cnc(C)cc4-c4cc(Cl)ncc4OC)sc3C2)n(C)n1 [Example 90, 2′-chloro-5′-methoxy-N-(5-(3-methoxy-1-methyl-1H-pyrazole-5-carbonyl)-5,6-dihydro-4H-pyrrolo[3,4-d]thiazol-2-yl)-6-methyl-[4,4′-bipyridine]-3-carboxamide]	0.001 to 0.1	7.82 to 9.00	–	–	≥ 10	–	–	–
COc1cnc(Cl)cc1-c1cc(C)ncc1C(=O)Nc1nc2c(s1)CN(C(=O)C1CC(CC(F)F)C1)C2 (stereo not drawn) [Example 177]	0.001 to 0.1	7.82 to 9.00	–	–	≥ 10	–	–	–
COc1cnc(Cl)cc1-c1cc(C)ncc1C(=O)Nc1nc2c(s1)CN(C(=O)c1cc(Cl)ccn1)C2 [Example 78, 2′-chloro-N-(5-(4-chloropicolinoyl)-5,6-dihydro-4H-pyrrolo[3,4-d]thiazol-2-yl)-5′-methoxy-6-methyl-[4,4′-bipyridine]-3-carboxamide]	0.001 to 0.1	7.82 to 9.00	–	–	5 to 10	–	–	–
